Measurements published in patent publication US20220323455A1, “FUSED HETEROCYCLIC DERIVATIVES AS ANTIVIRAL AGENTS” (priority 2019, published 2022).
pEC50: −log10 of the molar value.

Experiments:
[1] = tested on: HBV; assay: Anti-HBV activity in HepG2.117 cell line (intracellular HBV DNA, real-time PCR); assay type: cell-based; details: Hepatitis B virus, read-out: HBV-AVE-HepG2.117 EC50 (μM, mean value)
Experimental: The anti HBV activity was measured using the HepG2.117 cell line, a stable, inducibly HBV producing cell line, which replicates HBV in the absence of doxicycline (Tet-off system). The HepG2 cell line is available from ATCC® under number HB-8065. Transfection of the HepG2 cell line can be as described in Sun and Nassal 2006 Journal of Hepatology 45 (2006) 636-645 “Stable HepG2- and Huh7-based human hepatoma cell lines for efficient regulated expression of infectious hepatitis B virus”.
For the antiviral assay, HBV replication was induced, followed by a treatment with serially diluted compound in 96-well plates. After 3 days of treatment, the antiviral activity was determined by quantification of intracellular HBV DNA using real-time PCR and an HBV specific primer set and probe.

[2] = Cytotoxicity in HepG2.117 cells (ATPlite Luminescence Assay); assay type: cell-based; details: human, incubated for 3 days, cell viability, mean value, read-out: TOX-HepG2.117 CC50 (μM, mean value)
Experimental: Cytotoxicity of the compounds was tested using HepG2 or HepG2.117 cells, incubated for 3 days in the presence of compounds. The viability of the cells was assessed using the PERKIN ELMER ATPlite Luminescence Assay System.”

[3] = tested on: HBV; assay: HBV replication inhibition assay (BDNA assay) in HepG2.2.15 cells; assay type: cell-based, Hepatitis B virus; details: 6 days, encapsidated HBV DNA in supernatant
Procedure, shortened: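 HepG2.2.15 cells were dosed with serially diluted compound (0.5% DMSO), with compound and medium renewed at day 3. Day-6 supernatants were DNase-treated and proteinase K-lysed, and encapsidated HBV DNA was quantified by branched-DNA assay. Percent inhibition was set against DMSO controls and EC50 obtained by nonlinear fit.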

[4] = 72 h, HepG2.117 cells, 3 days of treatment, intracellular HBV DNA, mean value

| SMILES | EC50 [1, 4] [µM] | CC50 at 3 days [2] [µM] | EC50 ([1]; HepG2.117, 72 h) [µM] | pEC50 [3] |
| --- | --- | --- | --- | --- |
| C[C@@H]1Cc2nn3c(c2CN1C(=O)c1ccc(Cl)c(Cl)c1)C(F)(F)CNCC3 [Example C2, (3,4-Dichlorophenyl)[(3R)-11,11-difluoro-3-methyl-1,3,4,7,8,9,10,11-octahydro-2H-pyrido[4′,3′:3,4]pyrazolo[1,5-d][1,4]diazepin-2-yl]methanone] | 0.088 | > 50 | – | – |
| COc1ccc(CN2CCn3nc4c(c3C(F)(F)C2)CN(C(=O)c2ccc(Cl)c(Cl)c2)[C@H](C)C4)cc1 [Example C1, (3,4-Dichlorophenyl){(3R)-11,11-difluoro-9-[(4-methoxyphenyl)methyl]-3-methyl-1,3,4,7,8,9,10,11-octahydro-2H-pyrido[4′,3′:3,4]pyrazolo[1,5-d][1,4]diazepin-2-yl}methanone] | 0.274 | 15.7 | – | – |
| C[C@@H]1Cc2nn3c(c2CN1C(=O)c1ccc(Cl)c(Cl)c1)C(F)(F)CN(C)CC3 [Example C3, (3,4-Dichlorophenyl)[(3R)-11,11-difluoro-3,9-dimethyl-1,3,4,7,8,9,10,11-octahydro-2H-pyrido[4′,3′:3,4]pyrazolo[1,5-d][1,4]diazepin-2-yl]methanone] | 0.032 | > 50 | – | – |
| C[C@@H]1Cc2nn3c(c2CN1C(=O)c1ccc(Cl)c(Cl)c1)C(F)(F)C(O)CCC3 (stereo partly drawn) [Example C6, (3,4-Dichlorophenyl)[(3R)-11,11-difluoro-10-hydroxy-3-methyl-1,3,4,7,8,9,10,11-octahydro-2H-pyrido[4′,3′:3,4]pyrazolo[1,5-a]azepin-2-yl]methanone] | 3.28 | > 50 | – | – |
| C[C@@H]1Cc2nn3c(c2CN1C(=O)c1ccc(Cl)c(Cl)c1)C(F)(F)CC[C@@H](C(C)(C)O)C3 (single isomer, unassigned) [Example C14, (3,4-Dichlorophenyl)[(3R,8*R)-11,11-difluoro-8-(2-hydroxypropan-2-yl)-3-methyl-1,3,4,7,8,9,10,11-octahydro-2H-pyrido[4′,3′:3,4]pyrazolo[1,5-a]azepin-2-yl]methanone] | < 0.195 | 5.76 | – | – |
| O=C(c1ccc(Cl)c(Cl)c1)N1CCc2nn3c(c2C1)C(F)(F)CCC(CNC(=O)C(F)(F)F)C3 (stereo not drawn) [Example C17, N-{[2-(3,4-Dichlorobenzoyl)-11,11-difluoro-1,3,4,7,8,9,10,11-octahydro-2H-pyrido[4′,3′:3,4]-pyrazolo[1,5-a]azepin-8-yl]methyl}-2,2,2-trifluoroacetamide] | – | 20 | 0.326 | – |
| C[C@@H]1Cc2nn3c(c2CN1C(=O)c1ccc(Cl)c(Cl)c1)C(F)(F)CC[C@@H](O)C3 (single isomer, unassigned) [Example C8, (3,4-Dichlorophenyl)[(3R,8*R)-11,11-difluoro-8-hydroxy-3-methyl-1,3,4,7,8,9,10,11-octahydro-2H-pyrido[4′,3′:3,4]pyrazolo[1,5-a]azepin-2-yl]methanone] | 0.019 | > 50 | – | – |
| C#C[C@]1(O)CCC(F)(F)c2c3c(nn2C1)C[C@@H](C)N(C(=O)c1ccc(Cl)c(Cl)c1)C3 (single isomer, unassigned) [Example C10, (3,4-Dichlorophenyl)[(3R,8*R)-8-ethynyl-11,11-difluoro-8-hydroxy-3-methyl-1,3,4,7,8,9,10,11-octahydro-2H-pyrido[4′,3′:3,4]pyrazolo[1,5-a]azepin-2-yl]methanone] | 0.078 | 36.9 | – | – |
| COC(=O)NCC1CCC(F)(F)c2c3c(nn2C1)CCN(C(=O)c1ccc(Cl)c(Cl)c1)C3 (stereo not drawn) [Example C16, Methyl {[2-(3,4-dichlorobenzoyl)-11,11-difluoro-1,3,4,7,8,9,10,11-octahydro-2H-pyrido-[4′,3′:3,4]pyrazolo[1,5-a]azepin-8-yl]methyl}carbamate] | 0.177 | 38.2 | – | – |
| CC(=O)NCC1CCC(F)(F)c2c3c(nn2C1)CCN(C(=O)c1ccc(Cl)c(Cl)c1)C3 (stereo not drawn) [Example C15, N-{[2-(3,4-dichlorobenzoyl)-11,11-difluoro-1,3,4,7,8,9,10,11-octahydro-2H-pyrido[4′,3′:3,4]-pyrazolo[1,5-a]azepin-8-yl]methyl}acetamide] | 0.221 | > 50 | – | – |
| C#C[C@@]1(O)CCC(F)(F)c2c3c(nn2C1)C[C@@H](C)N(C(=O)c1ccc(Cl)c(Cl)c1)C3 (single isomer, unassigned) [Example C11, (3,4-Dichlorophenyl)[(3R,8*S)-8-ethynyl-11,11-difluoro-8-hydroxy-3-methyl-1,3,4,7,8,9,10,11-octahydro-2H-pyrido[4′,3′:3,4]pyrazolo[1,5-a]azepin-2-yl]methanone] | 0.257 | 33.8 | – | – |
| C[C@@H]1Cc2nn3c(c2CN1C(=O)c1ccc(Cl)c(Cl)c1)C(F)(F)C(Oc1ccc(C#N)cc1)CCC3 (stereo partly drawn) [Example C7, 4-{[(3R)-2-(3,4-Dichlorobenzoyl)-11,11-difluoro-3-methyl-1,3,4,7,8,9,10,11-octahydro-2H-pyrido[4′,3′:3,4]pyrazolo[1,5-a]azepin-10-yl]oxy}benzonitrile] | – | > 50 | 2.38 | – |
| C[C@@H]1Cc2nn3c(c2CN1C(=O)c1ccc(Cl)c(Cl)c1)C(F)(F)CC[C@@H](CO)C3 (single isomer, unassigned) [Example C12, (3,4-Dichlorophenyl)[(3R,8*R)-11,11-difluoro-8-(hydroxymethyl)-3-methyl-1,3,4,7,8,9,10,11-octahydro-2H-pyrido[4′,3′:3,4]pyrazolo[1,5-a]azepin-2-yl]methanone] | 0.048 | 32.7 | – | – |
| C[C@@H]1Cc2nn3c(c2CN1C(=O)c1ccc(Cl)c(Cl)c1)C(F)(F)CN(S(C)(=O)=O)CC3 [Example C4, (3,4-Dichlorophenyl)[(3R)-11,11-difluoro-9-(methanesulfonyl)-3-methyl-1,3,4,7,8,9,10,11-octahydro-2H-pyrido[4′,3′:3,4]pyrazolo[1,5-d][1,4]diazepin-2-yl]methanone] | 0.052 | > 50 | – | – |
| C[C@@H]1Cc2nn3c(c2CN1C(=O)c1ccc(Cl)c(Cl)c1)C(F)(F)CC[C@H](O)C3 (single isomer, unassigned) [Example C9, (3,4-Dichlorophenyl)[(3R,8*S)-11,11-difluoro-8-hydroxy-3-methyl-1,3,4,7,8,9,10,11-octahydro-2H-pyrido[4′,3′:3,4]pyrazolo[1,5-a]azepin-2-yl]methanone] | 0.018 | > 50 | – | – |
| C[C@@H]1Cc2nn3c(c2CN1C(=O)Nc1ccnc(Br)c1F)C(F)(F)CCC(CO)C3 (single isomer, unassigned) [Example 81, (3R,8R*)—N-(2-Bromo-3-fluoropyridin-4-yl)-11,11-difluoro-8-(hydroxymethyl)-3-methyl-3,4,8,9,10,11-hexahydro-1H-pyrido[4′,3′:3,4]pyrazolo[1,5-a]azepine-2(7H)-carboxamide] | – | – | – | 8.70 |
| N#CCC1(O)CCC(F)(F)c2c3c(nn2C1)CCN(C(=O)Nc1ccnc(Br)c1F)C3 (single isomer, unassigned) [Example 43, (S*)—N-(2-Bromo-3-fluoropyridin-4-yl)-8-(cyanomethyl)-11,11-difluoro-8-hydroxy-34,89,10,11-hexahydro-1H-pyrido[4′,3′:3,4]pyrazolo[1,5-a]azepine-2(7H)-carboxamide] | – | – | – | 6.55 |
| N#Cc1cc(NC(=O)N2CCc3nn4c(c3C2)C(F)(F)CCC(COCC(F)F)C4)ccc1F (single isomer, unassigned) [Example 27, (S*)—N-(3-Cyano-4-fluorophenyl)-8-((2,2-difluoroethoxy)methyl)-11,11-difluoro-3,4,8,9,10,11-hexahydro-1H-pyrido[4′,3′:3,4]pyrazolo[1,5-a]azepine-2(7H)-carboxamide] | – | – | – | 8.22 |
| COC(=O)NCC1CCC(F)(F)c2c3c(nn2C1)C[C@@H](C)N(C(=O)Nc1ccnc(C(F)F)c1F)C3 (single isomer, unassigned) [Example 110, Methyl (((3R,8S*)-2-((2-(difluoromethyl)-3-fluoropyridin-4-yl)carbamoyl)-11,11-difluoro-3-methyl-2,3,4,7,8,9,10,11-octahydro-1H-pyrido[4′,3′:3,4]pyrazolo[1,5-a]azepin-8-yl)methyl)carbamate] | – | – | – | 7.74 |
| C[C@@H]1Cc2nn3c(c2CN1C(=O)Nc1ccnc(Br)c1F)C(F)(F)CC(O)CC3 (single isomer, unassigned) [Example 118, (3R,9R*)—N-(2-Bromo-3-fluoropyridin-4-yl)-11,11-difluoro-9-hydroxyl-3-methyl-3,4,8,9,10,11-hexahydro-1H-pyrido[4′,3′:3,4]pyrazolo[1,5-a]azepine-2(7H)-carboxamide] | – | – | – | 8.52 |
| N#Cc1cc(NC(=O)N2CCc3nn4c(c3C2)C(F)(F)CCC(O)(COCC(F)F)C4)ccc1F (single isomer, unassigned) [Example 31, (R*)—N-(3-Cyano-4-fluorophenyl)-8-((2,2-difluoroethoxy)methyl)-11,11-difluoro-8-hydroxy-3,4,8,9,10,11-hexahydro-1H-pyrido[4′,3′:3,4]pyrazolo[1,5-a]azepine-2(7H)-carboxamide] | – | – | – | 7.38 |
